Source: ChEMBL document CHEMBL1141996, “cis-6-oxo-hexahydro-2-oxa-1,4-diazapentalene and cis-6-oxo-hexahydropyrrolo[3,2-c]pyrazole based scaffolds: design rationale, synthesis and cysteinyl proteinase inhibition” (Bioorg Med Chem Lett, 2005)
pKi: −log10 of the molar value.

Key:
[1] = target: Cathepsin S (Homo sapiens, UniProt P25774); experiment: Binding affinity against cathepsin S
[2] = target: Cruzipain (Trypanosoma cruzi, UniProt P25779); experiment: Binding affinity against cruzaine
[3] = Binding affinity against cathepsin L
[4] = Binding affinity against cathepsin B
[5] = target: Cysteine proteinase B (Leishmania mexicana, UniProt P36400); experiment: Binding affinity against Leishmania mexicana cysteine peptidase B (CPB)
Chain of Cysteine proteinase B (P36400 whole entry): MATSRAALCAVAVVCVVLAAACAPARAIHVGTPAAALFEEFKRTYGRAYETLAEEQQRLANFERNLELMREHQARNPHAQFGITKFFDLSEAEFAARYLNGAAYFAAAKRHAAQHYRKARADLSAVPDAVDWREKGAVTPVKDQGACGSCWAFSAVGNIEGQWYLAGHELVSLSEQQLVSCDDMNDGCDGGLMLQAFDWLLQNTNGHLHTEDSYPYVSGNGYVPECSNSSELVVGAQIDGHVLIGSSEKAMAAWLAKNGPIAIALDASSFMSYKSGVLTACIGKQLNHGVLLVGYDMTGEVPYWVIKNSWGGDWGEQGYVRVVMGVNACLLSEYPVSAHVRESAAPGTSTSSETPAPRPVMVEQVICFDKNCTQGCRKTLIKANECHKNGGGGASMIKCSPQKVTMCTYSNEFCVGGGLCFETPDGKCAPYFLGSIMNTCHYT

[6] = target: T1, Cathepsin K (Homo sapiens, UniProt P43235); experiment: Binding affinity against human cathepsin K
T1 sequence (P43235 whole entry): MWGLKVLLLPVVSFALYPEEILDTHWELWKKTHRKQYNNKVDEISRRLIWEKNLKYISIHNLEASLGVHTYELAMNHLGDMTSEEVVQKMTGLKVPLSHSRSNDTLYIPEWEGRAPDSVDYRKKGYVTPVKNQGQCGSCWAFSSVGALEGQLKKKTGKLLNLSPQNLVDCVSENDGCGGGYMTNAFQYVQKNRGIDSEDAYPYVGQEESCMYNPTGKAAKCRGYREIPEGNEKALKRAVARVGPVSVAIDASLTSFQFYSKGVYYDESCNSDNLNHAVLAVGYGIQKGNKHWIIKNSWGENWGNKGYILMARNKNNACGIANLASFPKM

Chain of Cathepsin S (P25774 whole entry): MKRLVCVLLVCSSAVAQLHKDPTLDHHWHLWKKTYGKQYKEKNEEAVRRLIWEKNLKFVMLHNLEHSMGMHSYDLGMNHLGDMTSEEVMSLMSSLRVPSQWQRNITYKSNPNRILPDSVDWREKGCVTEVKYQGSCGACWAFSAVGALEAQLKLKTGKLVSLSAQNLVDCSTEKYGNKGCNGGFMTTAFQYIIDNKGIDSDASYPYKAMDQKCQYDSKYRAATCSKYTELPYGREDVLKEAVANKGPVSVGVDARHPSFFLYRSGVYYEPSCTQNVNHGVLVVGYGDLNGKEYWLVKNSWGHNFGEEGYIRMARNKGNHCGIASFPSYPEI
Chain of Cruzipain (P25779 whole entry): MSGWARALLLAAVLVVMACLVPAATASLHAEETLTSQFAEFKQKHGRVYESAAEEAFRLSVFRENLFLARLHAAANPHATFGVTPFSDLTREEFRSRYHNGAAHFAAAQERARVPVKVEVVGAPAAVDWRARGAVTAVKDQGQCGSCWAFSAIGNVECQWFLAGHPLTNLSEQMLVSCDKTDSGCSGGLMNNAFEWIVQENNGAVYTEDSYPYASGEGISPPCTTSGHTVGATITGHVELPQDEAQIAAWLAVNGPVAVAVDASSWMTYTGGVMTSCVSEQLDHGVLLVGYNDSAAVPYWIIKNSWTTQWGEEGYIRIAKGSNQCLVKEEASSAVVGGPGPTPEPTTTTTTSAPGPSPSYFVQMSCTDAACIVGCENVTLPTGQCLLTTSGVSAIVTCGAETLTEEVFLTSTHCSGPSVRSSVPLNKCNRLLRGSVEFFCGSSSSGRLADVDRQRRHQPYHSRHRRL

Compound | pKi [1] | pKi [2] | pKi [3] | pKi [4] | pKi [5] | pKi [6]
CC(C)C[C@H](NC(=O)c1ccc(C(C)(C)C)cc1)C(=O)N1NC[C@@H]2[C@H]1C(=O)CN2C(=O)c1ccccc1 | 6.36 | 7.03 | 6.43 | 6.92 | 7.31 | 8.46
CC(C)C[C@H](NC(=O)c1ccc(N(C)C)cc1)C(=O)N1CC[C@@H]2[C@H]1C(=O)CN2C(=O)c1ccccc1 | < 5.52 | 6.22 | 5.74 | < 5.00 | 5.93 | 8.26
CC(C)C[C@H](NC(=O)c1ccc(C(C)(C)C)cc1)C(=O)N1CC[C@@H]2[C@H]1C(=O)CN2C(=O)c1ccccc1 | < 5.35 | 6.76 | < 5.46 | < 5.00 | 6.16 | 8.00
CC(C)C[C@H](NC(=O)c1ccc(N(C)C)cc1)C(=O)N1OC[C@@H]2[C@H]1C(=O)CN2C(=O)c1ccccc1 | < 5.52 | 5.60 | < 5.37 | < 5.22 | 6.00 | 7.40
